Measured values reported in patent US10874670B2, “Substituted fused heteroaromatic compounds as kinase inhibitors and the use thereof” (IMPACT THERAPEUTICS, INC., priority 2017, dated 2020).
Where two headings read alike, the source gives them in different places.

Legend:
ATM enzyme (human) = ATM enzyme (human) (Homo sapiens, UniProt Q13315); assay: ATM kinase assay (HTRF, GST-cMyc-p53 substrate); format: biochemical; conditions: for inhibition at 1 µM: C 1 μm (final concentration of compound); for inhibition at 0.01 µM: C 0.01 μm (final concentration of compound); for inhibition at 0.1 µM: C 0.1 μm (final concentration of compound)
Method in brief: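 Reaction with GST-cMyc-p53 substrate started with Mg/ATP, run 30 minutes at room temperature, then stopped with EDTA. Phospho-p53 (Ser15) detected by HTRF with Eu-labelled anti-phospho antibody and d2 anti-GST, signal as 10000×(Em665/Em620). Duplicates; IC50 from a curve fit with slope factor.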

[1] = test system: human colon cancer cell SW620; assay: MTT assay, growth of SW620 cells, compounds combined with CPT-11; format: cell-based; conditions: for IC50: Homo sapiens, SW-620, 120 h, combined with CPT-11 (205 nM medium), 5 days, MTT
Method in brief: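 SW620 cells in RPMI 1640/10% FBS were exposed to 8-point compound dilutions (top 10 or 1 μM, 1% DMSO final) plus CPT-11 (205 nM in added medium) for 5 days at 37 °C. Viability by MTT (0.5 mg/mL, 4 h) absorbance; IC50 from sigmoidal fit.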

[2] = test system: human breast cancer cell MDA-MB-468; assay: MTT assay, growth of MDA-MB-468 cells; format: cell-based; conditions: for IC50: Homo sapiens, MDA-MB-468, 168 h, 7 days, MTT
Protocol: Inhibitory Effects of N,N-dimethyl-3-(4-(1-(tetrahydro-2H-pyran-4-yl)-[1,2,4]triazolo[4,3-a]quinoxalin-8-yl)phenoxy)propan-1-amine and its Analogues on the Growth of Human Breast Cancer Cell MDA-MB-468 were Determined by MTT Assay
MDA-MB-468 cells were digested by trypsinase, centrifuged at 800 rpm for 5 minutes, the supernatant was discarded, resuspended with fresh medium (RPMI 1640 medium+10% FBS) and counted. The cells were seeded into 96-well cell culture plate with appropriate cell density and incubated overnight in a 37° C. 5% CO2 incubator. The stock solutions of the tested compound and the reference compound AZD0156 were serially diluted to 8 concentrations by DMSO at the ratios of 1:3 and 1:10, respectively: the first concentration was 100 μM or 1 μM, and the last concentration was negative control of DMSO (0 μM, the final concentration of DMSO was 1%). 5 μL of each concentration was added to 120 μL of medium (25 times diluted) and mixed by shaking. The overnight cells were taken and the culture medium was removed, 195 μL of fresh medium was added to each well, and 5 μL of diluted medium containing the corresponding concentration of the tested sample was added respectively, and the culture plate was then placed in the 5% CO2 cell culture incubator at 37° C. for 7 days (On the fourth day, the medium containing drugs was removed and fresh medium containing drugs was added for continuous cultivation). After removing the original solution, 100 μL of fresh serum-free DMEM medium containing MTT (0.5 mg/mL) was added to each well, the culture was continued. After 4 hours, the original solution was removed, 100 μL of DMSO was added into each well, the 96-well plates were shaken away from light for 10 minutes and placed in a multi-function reader to read the absorbance at the wavelength of 552/630/690 nm. GraphPad Prism 6.0 was used to analyze the data. The inhibitory activity of compounds on cell proliferation was plotted based on cell viability and compound concentration. The IC50 value was fitted by a sigmoidal dose response curve equation Y=100/(1+10^(Log C−Log IC50)), where C was the concentration of compound.
Table 4 summarizes the inhibitory effects of compounds on the growth of human breast cancer cell MDA-MB-468 (IC50).

[3] = 0.5 h, read-out: Inh (%) of ATM kinase

Sequence of ATM enzyme (human) (Q13315 whole entry): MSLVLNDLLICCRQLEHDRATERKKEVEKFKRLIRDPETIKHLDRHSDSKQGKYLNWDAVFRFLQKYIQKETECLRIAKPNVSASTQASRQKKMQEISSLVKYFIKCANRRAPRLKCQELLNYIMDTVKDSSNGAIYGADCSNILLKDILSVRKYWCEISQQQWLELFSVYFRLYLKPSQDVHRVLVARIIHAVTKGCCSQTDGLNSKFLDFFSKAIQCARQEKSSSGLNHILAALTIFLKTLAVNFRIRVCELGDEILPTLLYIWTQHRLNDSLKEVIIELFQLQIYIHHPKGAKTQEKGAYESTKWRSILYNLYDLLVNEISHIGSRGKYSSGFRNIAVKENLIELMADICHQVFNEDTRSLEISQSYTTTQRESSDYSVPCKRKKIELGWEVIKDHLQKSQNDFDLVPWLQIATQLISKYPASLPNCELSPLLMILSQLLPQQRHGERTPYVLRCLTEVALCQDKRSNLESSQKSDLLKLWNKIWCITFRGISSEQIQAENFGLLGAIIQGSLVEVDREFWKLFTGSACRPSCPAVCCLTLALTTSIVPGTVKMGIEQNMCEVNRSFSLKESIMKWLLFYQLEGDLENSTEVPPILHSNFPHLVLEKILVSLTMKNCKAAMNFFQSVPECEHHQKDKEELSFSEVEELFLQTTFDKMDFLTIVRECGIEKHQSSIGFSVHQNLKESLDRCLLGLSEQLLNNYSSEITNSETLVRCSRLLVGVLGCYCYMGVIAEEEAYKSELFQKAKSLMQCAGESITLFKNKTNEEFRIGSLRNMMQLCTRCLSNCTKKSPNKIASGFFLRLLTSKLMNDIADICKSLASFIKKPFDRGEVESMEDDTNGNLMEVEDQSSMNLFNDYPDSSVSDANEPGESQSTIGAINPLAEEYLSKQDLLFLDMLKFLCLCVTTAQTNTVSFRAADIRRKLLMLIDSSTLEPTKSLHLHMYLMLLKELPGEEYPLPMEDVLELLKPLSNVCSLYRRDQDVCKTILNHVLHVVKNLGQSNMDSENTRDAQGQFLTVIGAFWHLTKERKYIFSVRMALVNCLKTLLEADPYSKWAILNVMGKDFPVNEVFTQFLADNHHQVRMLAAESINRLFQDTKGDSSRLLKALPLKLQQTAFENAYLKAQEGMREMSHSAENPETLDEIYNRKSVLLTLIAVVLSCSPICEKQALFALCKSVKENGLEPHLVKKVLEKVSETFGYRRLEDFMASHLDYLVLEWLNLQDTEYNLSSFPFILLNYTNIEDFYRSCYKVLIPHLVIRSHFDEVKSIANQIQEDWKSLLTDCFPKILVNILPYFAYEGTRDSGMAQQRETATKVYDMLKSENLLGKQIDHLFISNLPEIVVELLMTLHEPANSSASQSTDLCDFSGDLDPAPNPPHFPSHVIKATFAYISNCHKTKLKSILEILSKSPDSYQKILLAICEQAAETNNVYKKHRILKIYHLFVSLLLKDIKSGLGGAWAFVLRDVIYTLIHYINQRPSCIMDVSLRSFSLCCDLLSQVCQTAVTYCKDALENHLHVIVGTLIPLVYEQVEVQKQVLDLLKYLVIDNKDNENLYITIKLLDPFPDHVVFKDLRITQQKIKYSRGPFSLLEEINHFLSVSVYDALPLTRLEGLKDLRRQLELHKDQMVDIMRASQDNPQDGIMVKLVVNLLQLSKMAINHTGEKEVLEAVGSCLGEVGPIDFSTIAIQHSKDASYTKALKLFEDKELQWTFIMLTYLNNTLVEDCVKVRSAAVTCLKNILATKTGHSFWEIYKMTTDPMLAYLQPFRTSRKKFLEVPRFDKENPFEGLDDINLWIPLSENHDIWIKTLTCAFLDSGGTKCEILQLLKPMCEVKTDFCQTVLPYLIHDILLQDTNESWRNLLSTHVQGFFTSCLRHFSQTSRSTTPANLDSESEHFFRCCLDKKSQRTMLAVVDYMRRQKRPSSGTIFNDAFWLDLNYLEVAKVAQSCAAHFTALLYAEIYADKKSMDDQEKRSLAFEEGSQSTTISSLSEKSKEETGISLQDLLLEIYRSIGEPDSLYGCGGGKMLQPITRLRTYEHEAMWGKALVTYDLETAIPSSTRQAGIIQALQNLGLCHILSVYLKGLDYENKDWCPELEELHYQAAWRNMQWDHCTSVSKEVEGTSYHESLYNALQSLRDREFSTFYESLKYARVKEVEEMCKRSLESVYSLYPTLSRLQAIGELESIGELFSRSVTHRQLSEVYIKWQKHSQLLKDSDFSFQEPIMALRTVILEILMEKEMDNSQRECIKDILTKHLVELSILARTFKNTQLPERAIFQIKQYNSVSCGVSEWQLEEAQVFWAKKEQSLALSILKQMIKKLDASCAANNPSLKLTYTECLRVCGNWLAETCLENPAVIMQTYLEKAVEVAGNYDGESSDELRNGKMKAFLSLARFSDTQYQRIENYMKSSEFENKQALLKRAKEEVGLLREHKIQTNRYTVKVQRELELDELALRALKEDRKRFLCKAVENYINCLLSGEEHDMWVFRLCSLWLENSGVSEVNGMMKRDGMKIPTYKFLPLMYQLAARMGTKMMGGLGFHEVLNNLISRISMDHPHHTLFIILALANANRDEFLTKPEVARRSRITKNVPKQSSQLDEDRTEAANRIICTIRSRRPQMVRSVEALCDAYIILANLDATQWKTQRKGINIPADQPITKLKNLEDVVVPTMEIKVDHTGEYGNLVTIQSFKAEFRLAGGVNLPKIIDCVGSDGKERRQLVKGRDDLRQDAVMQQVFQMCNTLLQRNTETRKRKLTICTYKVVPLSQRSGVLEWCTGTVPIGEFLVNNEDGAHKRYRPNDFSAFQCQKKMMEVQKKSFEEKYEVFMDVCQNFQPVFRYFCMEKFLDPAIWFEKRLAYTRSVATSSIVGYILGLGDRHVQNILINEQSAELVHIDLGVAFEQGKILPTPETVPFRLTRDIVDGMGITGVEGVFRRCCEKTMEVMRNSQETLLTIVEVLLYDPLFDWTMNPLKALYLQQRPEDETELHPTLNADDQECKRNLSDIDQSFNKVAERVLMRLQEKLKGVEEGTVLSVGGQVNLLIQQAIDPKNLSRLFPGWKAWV

SMILES | inhibition at 1 µM (ATM enzyme (human); [3]) | IC50 [1] | IC50 [2] | inhibition at 0.01 µM (ATM enzyme (human); [3]) | inhibition at 0.1 µM (ATM enzyme (human); [3]) | inhibition at 0.001 µM (ATM enzyme (human); 0.5 h, C 0.001 μm (final concentration of compound), read-out: Inh (%) of ATM kinase) | inhibition at 0.001 µM (ATM enzyme (human); at 1 nM, read-out: inhibitory effect on ATM kinase) | inhibitory effect on the growth of SW620 cells (in words) ([1]; MTT assay, combined with CPT-11) | inhibitory effect on the growth of MDA-MB-468 cells (in words) ([2]; MTT assay)
CN(C)CCCOc1ccc(-c2cc3c(cn2)ncc2nnc(C4CCOCC4)n23)cc1 [Example 30, N,N-dimethyl-3-(4-(1-(tetrahydro-2H-pyran-4-yl)pyrido[3,4-e][1,2,4]triazolo[4,3-a]pyrazin-8-yl)phenoxy)propan-1-amine] | 14% | > 10000 nM | > 10000 nM |  |  |  |  |  | 
C[C@@H]1CN(c2nnc3cnc4ccc(-c5ccc(OCCCN(C)C)c(C(F)(F)F)c5)cc4n23)C[C@H](C)N1C [Example 57, N,N-dimethyl-3-(2-(trifluoromethyl)-4-(1-((3S,5R)-3,4,5-trimethylpiperazin-1-yl)-[1,2,4]triazolo[4,3-a]quinoxalin-8-yl)phenoxy)propan-1-amine] | 100% | 11.8 nM | 15 nM | 98% | 100% | 60% | > 50% | comparable to AZD0156 | comparable to AZD0156
CNC1CCN(c2ccc(-c3ccc4ncc5nnc(CN6CCOCC6)n5c4c3)cc2)CC1 [Example 66, N-methyl-1-(4-(1-(morpholinomethyl)-[1,2,4]triazolo[4,3-a]quinoxalin-8-yl)phenyl)piperidin-4-amine] | 100% | 589 nM | 430 nM |  |  |  |  |  | 
CNC1CCN(c2ccc(-c3ccc4ncc5nnc(C6CCOCC6)n5c4n3)cc2)CC1 [Example 74, N-methyl-1-(4-(9-(tetrahydro-2H-pyran-4-yl)pyrido[3,2-e][1,2,4]triazolo[4,3-a]pyrazin-2-yl)phenyl)piperidin-4-amine] | 100% | 199 nM | 305 nM | 66% | 96% |  |  |  | 
CN(C)CCCOc1ccc(-c2ccc3ncc4nnc(N5CCOCC5)n4c3c2)cc1 [Example 21, N,N-dimethyl-3-(4-(1-morpholino-[1,2,4]triazolo[4,3-a]quinoxalin-8-yl)phenoxy)propan-1-amine] | 100% | 334 nM | 372 nM |  |  |  |  |  | 

More lines, main results first:

inhibition at 1 µM (ATM enzyme (human); [3]) | IC50 [1] | IC50 [2] | inhibition at 0.01 µM (ATM enzyme (human); [3]) | inhibition at 0.1 µM (ATM enzyme (human); [3]) | inhibition at 0.001 µM (ATM enzyme (human); 0.5 h, C 0.001 μm (final concentration of compound), read-out: Inh (%) of ATM kinase) | inhibition at 0.001 µM (ATM enzyme (human); at 1 nM, read-out: inhibitory effect on ATM kinase) | SMILES | inhibitory effect on the growth of SW620 cells (in words) ([1]; MTT assay, combined with CPT-11) | inhibitory effect on the growth of MDA-MB-468 cells (in words) ([2]; MTT assay)
77% | > 100000 nM | > 100000 nM |  |  |  |  | CN(C)CC1CCN(c2ccc(-c3ccc4ncc5nnc(C6CCOCC6)n5c4c3)cc2)CC1 [Example 53, N,N-dimethyl-1-(1-(4-(1-(tetrahydro-2H-pyran-4-yl)-[1,2,4]triazolo[4,3-a]quinoxalin-8-yl)phenyl)piperidin-4-yl)methanamine] |  | 
100% | 170 nM | 106 nM | 67% | 94% |  |  | CN(C)C1CCN(c2ccc(-c3ccc4ncc5nnc(C6CCOCC6)n5c4c3)cc2Cl)CC1 [Example 45, 1-(2-chloro-4-(1-(tetrahydro-2H-pyran-4-yl)-[1,2,4]triazolo[4,3-a]quinoxalin-8-yl)phenyl)-N,N-dimethylpiperidin-4-amine] |  | 
100% | 128 nM | 145 nM | 72% | 96% |  |  | CN(C)C1CCN(c2ccc(-c3ccc4ncc5nnc(C6CCOCC6)n5c4c3)cc2C(F)(F)F)CC1 [Example 47, N,N-dimethyl-1-(4-(1-(tetrahydro-2H-pyran-4-yl)-[1,2,4]triazolo[4,3-a]quinoxalin-8-yl)-2-(trifluoromethyl)phenyl)piperidin-4-amine] |  | 
100% | 173 nM | 236 nM | 50% | 93% |  |  | CN(C)C1CCN(c2ccc(-c3ccc4ncc5nnc(C6CCOCC6)n5c4c3)cc2)CC1 [Example 12, N,N-dimethyl-1-(4-(1-(tetrahydro-2H-pyran-4-yl)-[1,2,4]triazolo[4,3-a]quinoxalin-8-yl)phenyl)piperidin-4-amine] |  | 
100% | 191 nM | 210 nM |  |  |  |  | NC1CCN(c2ccc(-c3ccc4ncc5nnc(C6CCOCC6)n5c4n3)cc2)CC1 [Example 73, 1-(4-(9-(tetrahydro-2H-pyran-4-yl)pyrido[3,2-e][1,2,4]triazolo[4,3-a]pyrazin-2-yl)phenyl)piperidin-4-amine] |  | 
